Measurements published in patent publication US11291661B2, “Pharmaceutical composition” (priority 2019, dated 2022).

Experiments:
[1] = Biopharmaceutical classification / solubility statement; type: physicochemical
[2] = Absorption, distribution, metabolism and excretion after a single 1-mg oral dose of [14C]Compound (A); type: in vivo, human
Text: Primary phase 1 oxidative pathways included:
1) oxidative O-dealkylation; 2) oxidation at the phenyl cyclopropyl isoxazole moiety; 3) oxidation at the benzothiazole and fused ring structure. Metabolites containing multiple oxidative modifications and/or glucuronidation to oxidative products were also observed in human excreta.

With `O=C(O)c1cc(F)c2nc(N3C4CC[C@H]3C[C@@H](OCc3c(-c5ccccc5OC(F)(F)F)noc3C3CC3)C4)sc2c1` [Compound (A), 2-[(1R,3r,5S)-3-({5-cyclopropyl-3-[2-(trifluoromethoxy)phenyl]-1,2-oxazol-4-yl}methoxy)-8-azabicyclo[3.2.1]octan-8-yl]-4-fluoro-1,3-benzothiazole-6-carboxylic acid] the water solubility [1] was “low water solubility”, the “biopharmaceutical classification system class” value ([1]; poorly soluble and poorly permeable compound) was “class IV” and the “Faecal excretion of related radioactivity” value [2] was ~65 % of the total dose. For the same molecule, the “Unchanged Compound (A) in the plasma” value [2] was ~92 % of total radioactivity, the “urinary excretion of related radioactivity” value [2] was ~29 % of the total dose and the “Mass balance, administered dose recovered in excreta” value ([2]; 312 hours collection period) was “approximately 94%”. It also gave a half-life ([2]; human, plasma, read-out: half time (t1/2) in plasma (converted)) of 13.5 h, a Cmax ([2]; human, plasma, read-out: maximum concentration (Cmax) of parent in plasma) of 33.5 ng/mL and a Tmax ([2]; human, plasma, read-out: median Tmax) of 4 h.
